Series [1] relates to Human peripheral blood mononuclear cells. The experiment in a line: Human Concanavalin-A Proliferation Assay (Con HU Assay). It counts as cell-based. Particulars: Homo sapiens, PBMC, concanavalin-A stimulated human PBMC; for inhibition at 10 µM: concentration 10 μm (in parentheses in the cell); for IC50: tritiated thymidine; for inhibition at 1 µM: concentration 1 μm (in parentheses in the cell). The gist of the method:
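Proliferation read as tritiated thymidine uptake (0.5 μCi/well, 6 h pulse on day 3) in human PBMC cultured 3 days with 2.5 μg/ml (final) concanavalin-A. Cells, 50,000 per well in supplemented RPMI 1640 with 10% FBS, received compound 15 min before mitogen.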

Setting [2] is: 72 h, 3 days, read-out: % Inhibition of proliferation (at concentrations of 1,10, or 100 μm).

Usually IC50 stands for the concentration that inhibits the measured activity by half. Higher therefore signals lower potency. In general, melting point refers to the temperature of the solid-liquid transition.

`COc1ccc(C(=O)Nc2ccc(-n3nc(C(F)(F)F)cc3C(F)(F)F)cc2)cc1Br` [Example 221, N-[4-[3,5-bis(trifluoromethyl)-1H-pyrazol-1-yl]phenyl]-3-bromo-4-methoxybenzamide] displayed a melting point of 197 to 198 °C. For the same molecule, in series [1] (setting [2]), the inhibition at 10 µM stood at 98%. In series [1], inhibition was half-maximal at 411 nM (IC50).
On to `N#Cc1cc(C(F)(F)F)nn1-c1ccc(NC(=O)c2ccncc2F)cc1` [Example 304, N-(4-(5-cyano-3-(trifluoromethyl)-1H-pyrazol-1-yl)phenyl)-3-fluoroisonicotinamide], for which the melting point is 161 to 162 °C. Further, in series [1], the IC50 came to 266 nM.
The molecule `O=C(Nc1ccc(-n2nc(C(F)(F)F)cc2C(F)(F)F)cc1)c1ccc(F)c(F)c1` [Example 218, N-[4-[3,5-bis(trifluoromethyl)-1H-pyrazol-1-yl]phenyl]-3,4-difluorobenzamide] displayed a melting point of 183 to 185 °C. The inhibition at 10 µM in series [1] (setting [2]) is 100%. Moreover, the IC50 in series [1] stood at 136 nM.
The corresponding values for `Nc1cccc(C(=O)Nc2ccc(-n3nc(C(F)(F)F)cc3C(F)(F)F)cc2)c1` [Example 58, 3-Amino-N-[4-[3,5-bis(trifluoromethyl)-1H-pyrazol-1-yl]phenyl]benzamide] are 203 to 204 °C, 97% and 484 nM.
`O=C(Nc1ccc(-n2nc(C(F)(F)F)cc2C(F)(F)F)cc1)C1CC=CCC1` (stereo not shown) [Example 29, N-[4-[3,5-bis(trifluoromethyl)-1H-pyrazol-1-yl]phenyl]-3-cyclohexene-1-carboxamide]: the melting point lay in the range of 177 to 178 °C. For the same molecule, the inhibition at 10 µM in series [1] (setting [2]) came out at 100%. In addition, the IC50 in series [1] came to 51 nM.
For the molecule `COc1cc(-n2nc(C(F)(F)F)cc2C(F)(F)F)ccc1NC(=O)c1snnc1C` [Example 280, N-[4-[3,5-bis(trifluoromethyl)-1H-pyrazol-1-yl]-2-methoxyphenyl]-4-methyl-1,2,3-thiadiazole-5-carboxamide], the melting point lay in the range of 119 to 121 °C. Also, the inhibition at 10 µM in series [1] (setting [2]) amounted to 16%.
Consider `O=C(Nc1ccc(-n2nc(C(F)(F)F)cc2-c2cccnc2)cc1)c1ccccc1F` [Example 310, 2-fluoro-N-(4-(5-(3-pyridinyl)-3-(trifluoromethyl)-1H-pyrazol-1-yl)phenyl)benzamide], for which the melting point was in the range of 138 to 140 °C. Also, half-maximal inhibition in series [1] (IC50) required 335 nM.
In the case of `O=C(Nc1ccc(-n2nc(C(F)(F)F)cc2C(F)(F)F)cc1)c1c(F)cccc1Cl` [Example 212, N-[4-[3,5-bis(trifluoromethyl)-1H-pyrazol-1-yl]phenyl]-2-chloro-6-fluorobenzamide], the melting point lay within 165 to 167 °C. Also, in series [1] (setting [2]), the inhibition at 10 µM is 99%. This molecule also registered an IC50 in series [1] of 70 nM.
In turn, `CS(=O)(=O)c1ccc(C(=O)Nc2ccc(-n3nc(C(F)(F)F)cc3C(F)(F)F)cc2)cc1` [Example 109, N-[4-[3,5-bis(trifluoromethyl)-1H-pyrazol-1-yl]phenyl]-4-(methylsulfonyl)benzamide] had a melting point of 216 to 218 °C. Moreover, the inhibition at 1 µM in series [1] (setting [2]) was found to be 45%.
For `O=C(Nc1ccc(-n2nc(C(F)(F)F)cc2C(F)(F)F)cc1)c1cccc(C(F)(F)F)c1` [Example 101, N-[4-[3,5-bis(trifluoromethyl)-1H-pyrazol-1-yl]phenyl]-3-(trifluoromethyl)benzamide], the melting point lay in the range of 143 to 145 °C. Also, the inhibition at 100 µM in series [1] (72 h, concentration 100 μm (in parentheses in the cell), 3 days, read-out: % Inhibition of proliferation (at concentrations of 1,10, or 100 μm)) stood at 100%. Also, the IC50 in series [1] turned out to be 2230 nM.
Consider `O=C(Nc1ccc(-n2nc(C(F)(F)F)cc2C(F)(F)F)cc1)C1(O)CC1` [Example 17, N-[4-[3,5-bis(trifluoromethyl)-1H-pyrazol-1-yl]phenyl]-1-hydroxycyclopropanecarboxamide], for which the melting point was in the range of 198 to 200 °C. The inhibition at 1 µM in series [1] (setting [2]) came out at 18%.

Source of the values: patent publication US20010044445A1, “AZOLE INHIBITORS OF CYTOKINE PRODUCTION” (priority 1999, published 2001).
